Data from PubChem BioAssay AID1259334 (Broad Institute, 2017).
The source made the active and inactive calls. Cut-off read from the data, not from the text of the source: active = AC50 below about 11 µM.

tested on: B cell line, TNFa signaling counterscreen reporter; experiment: TNFa pathway inhibition counter-screen, B-lineage cells – dose response (AID 1259334);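 note: cells stimulated with TNFa after compound preincubation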

`C[C@@H]1O[C@@H](O[C@H]2C[C@@H](O)[C@]3(CO)[C@H]4[C@H](O)C[C@]5(C)[C@@H](C6COC(=O)C6)CC[C@]5(O)[C@@H]4CC[C@]3(O)C2)[C@H](O)[C@H](O)[C@H]1O` (stereo partly drawn) and `CC12CCC3C(CCC4(O)CC(O)CCC34C=O)C1(O)CCC2C1=CC(=O)OC1` (stereo not drawn) are within 1.5-fold of each other in AC50: 2.76 µM for the first, 3.75 µM for the second.

`Clc1ccc(COC(Cn2ccnc2)c2ccc(Cl)cc2Cl)c(Cl)c1` (stereo not drawn) and `CCOc1ncccc1C(=O)OC(C)C(=O)Nc1ccc(Cl)cn1` (stereo not drawn) are within 1.5-fold of each other in AC50: 8.2 µM for the first, 10.3 µM for the second.

Going from `O=C1c2ccccc2C(=O)C1c1ccc2ccccc2n1` to `c1ccc2nc(-c3nc4ccccc4o3)ccc2c1`, the AC50 falls from 10.6 µM to 6.02 µM (1.8-fold).

Going from `COc1ccc(CN(CCC(c2ccccc2)c2ccc(OC(C)C)cc2)C(=O)CCl)cc1OC` (stereo not drawn) to `Cc1noc(C)c1S(=O)(=O)Nc1ccc2c(c1)CC(=O)N([C@@H](C)CO)C[C@@H](C)[C@@H](CN(C)Cc1ccc(Oc3ccccc3)cc1)O2`, the AC50 rises from 1.46 µM to 7.01 µM (4.8-fold).

Going from `O=C1CC(c2ccc3c(c2)OCO3)Sc2nc3ccccc3n21` (stereo not drawn) to `N#Cc1cccc(-c2ccc(C3[C@H]4CNC[C@@H]3N4Cc3ccc4c(c3)OCO4)cc2)c1` (stereo partly drawn), the AC50 rises from 3.83 µM to 6.32 µM (1.7-fold).

Going from `CC(C)Cc1ccc(C(C)/C=C2/CCC(CN3CCCCC3)C2=O)cc1` (stereo not drawn) to `CCOC(=O)c1c(SCCN2CCCC2)n(-c2ccccc2)c(=S)n(-c2ccccc2)c1=O`, the AC50 falls from 8.62 µM to 4.78 µM (1.8-fold).

Going from `COC(=O)C1=C(C(=O)OC)C(C(=O)OC)C(C(=O)OC)C(C(=O)OC)(C(=O)OC)C(C(=O)OC)=C1C(=O)OC` (stereo not drawn) to `COCC(C)n1c(C)cc(C(=O)COC(=O)c2cccn2C)c1C` (stereo not drawn), the AC50 falls from 4.62 µM to 0.76 µM (6.1-fold).

First: O=C1NC2C(O)C(O)C(O)C(O)C2c2cc3c(c(O)c21)OCO3 (stereo not drawn)
Second: COc1c(O)cc2oc3cc(O)c(CC=C(C)C)c(O)c3c(=O)c2c1CC=C(C)C
The AC50 of the first is 25-fold lower: 0.125 µM for the first, 3.15 µM for the second.

Going from `CC(C)C1CC(N(C)C)=CC(=S)N1` (stereo not drawn) to `C=C1C(=O)O[C@H]2[C@H]1CC/C(C)=C/CC[C@@]1(C)O[C@@H]21`, the AC50 falls from 10.7 µM to 3.54 µM (3-fold).

`C[C@H](CO)N1C[C@H](C)[C@@H](CN(C)Cc2ccc(Cl)c(Cl)c2)OCCCC[C@H](C)Oc2ccc(NS(=O)(=O)c3cccs3)cc2C1=O` and `COc1ccc(S(=O)(=O)Nc2ccc3c(c2)C(=O)N([C@H](C)CO)C[C@@H](C)[C@H](CN(C)Cc2ccc(C(F)(F)F)cc2)OCCCC[C@@H](C)O3)cc1` are within 1.5-fold of each other in AC50: 8.48 µM for the first, 8.15 µM for the second.

`O=C(O)c1ccc(Nc2nc3c(s2)CCCC3)cc1` and `Cc1ccccc1C(=O)N1CCC(C(=O)Nc2nc3ccc(F)cc3s2)CC1` are within 1.5-fold of each other in AC50: 5.3 µM for the first, 7.86 µM for the second.

Going from `O=C(COC(=O)c1ccccc1C(=O)c1ccc(Cl)c([N+](=O)[O-])c1)NC1CC1` to `Cc1cc(C(=O)COC(=O)c2ccco2)c(C)n1Cc1ccco1`, the AC50 falls from 1.47 µM to 0.111 µM (13-fold).

`N#C[C@@H]1[C@H](c2ccc(C#Cc3ccc(F)cc3)cc2)[C@@H](CO)N1C(=O)C1CCC1` and `CCCNC(=O)N1[C@H](C#N)[C@H](c2ccc(C#Cc3cccc(F)c3)cc2)[C@H]1CO` are within 1.5-fold of each other in AC50: 10.7 µM for the first, 8.92 µM for the second.

`C=C1CC(Cn2cc(Br)c(=O)[nH]c2=O)(c2ccc(-c3ccccc3)cc2)OC1=O` (stereo not drawn) and `COc1ccc(-c2cc(-c3ccccc3)c(C#N)c(S(C)=O)n2)cc1` (stereo not drawn) are within 1.5-fold of each other in AC50: 1.07 µM for the first, 1.53 µM for the second.

Compared with `O=C(C1CCOCC1)N1CC(=O)N2[C@H](C1)[C@H](c1ccc(C#CCc3ccccc3)cc1)[C@@H]2CO`, `COc1ccc(C#Cc2ccc([C@H]3[C@H]4CN(C(=O)c5ccncc5)CCCCN4[C@H]3CO)cc2)cc1` is 5.2-fold higher in AC50: 1.6 µM for the first, 8.29 µM for the second.

`C[C@@H]1CN([C@@H](C)CO)C(=O)c2c(c3ccccc3n2C)-c2ccccc2CO[C@H]1CN(C)C(=O)Nc1ccccc1C(F)(F)F` and `C[C@@H]1CN([C@H](C)CO)C(=O)c2ccccc2-c2ccccc2CO[C@@H]1CN(C)Cc1ccccc1C(F)(F)F` are within 1.5-fold of each other in AC50: 8.9 µM for the first, 10.7 µM for the second.

Compared with `Cc1ccc(N2CC(C(=O)Nc3nccs3)CC2=O)cc1Cl` (stereo not drawn), `CCCCNC(=O)C1(C)CCN1C(=O)c1cc(-c2cccs2)oc1C` (stereo not drawn) is 3.1-fold lower in AC50: 8.13 µM for the first, 2.59 µM for the second.

Going from `COc1ccc(C[C@H]2NC[C@H](O)[C@H]2OC(C)=O)cc1` to `COc1cccc(C#Cc2ccc([C@H]3[C@@H](C#N)N(C(=O)c4ccccn4)[C@@H]3CO)cc2)c1`, the AC50 rises from 0.0144 µM to 10.3 µM (720-fold).

Going from `CCCn1c(NC(=O)c2cccc(S(=O)(=O)N3CCCC3)c2)nc2ccccc21` to `Nc1ccc(-c2cccc3c(=O)cc(N4CCOCC4)oc23)cc1`, the AC50 rises from 2.61 µM to 8.56 µM (3.3-fold).

First: O=C(Nc1ccc(C(F)(F)F)cc1)Nc1ccc2c(c1)[C@H]1C[C@@H](CC(=O)N3CCc4ccccc4C3)O[C@H](CO)[C@H]1O2
Second: C[C@@H]1CN([C@@H](C)CO)C(=O)Cc2cc(NS(=O)(=O)c3ccc(F)cc3)ccc2O[C@H]1CN(C)Cc1ccc(C(F)(F)F)cc1
The AC50 of the first is 2-fold higher: 10.7 µM for the first, 5.36 µM for the second.

First: O=C1C=CC2C3C(=O)N(c4ccccc4)C(=O)C3C1N2Cc1ccccc1 (stereo not drawn)
Second: N#C[C@H]1[C@H](c2ccc(C#Cc3ccccc3F)cc2)[C@@H](CO)N1C(=O)c1cccnc1
The AC50 of the first is 6.2-fold lower: 1.52 µM for the first, 9.37 µM for the second.

Going from `COc1cc2c(cc1OC)C(=O)C(Br)CC2` (stereo not drawn) to `COc1cc2cc(C(=O)N3CC(COS(C)(=O)=O)c4ccc(O)cc43)[nH]c2c(OC)c1OC` (stereo not drawn), the AC50 falls from 2.97 µM to 0.00612 µM (490-fold).

`COc1ccc(S(=O)(=O)Nc2ccc3c(c2)C(=O)N([C@@H](C)CO)C[C@@H](C)[C@H](CN(C)Cc2ccc(C(F)(F)F)cc2)OCCCC[C@@H](C)O3)cc1` and `COc1ccc(S(=O)(=O)Nc2ccc3c(c2)C(=O)N([C@@H](C)CO)C[C@H](C)[C@@H](CN(C)Cc2ccc(C(F)(F)F)cc2)OCCCC[C@@H](C)O3)cc1` are within 1.5-fold of each other in AC50: 8.32 µM for the first, 7.51 µM for the second.

First: c1ccc(-c2nc(-c3ccccn3)no2)cc1
Second: N#C[C@@H]1[C@H](c2ccc(C#Cc3ccccc3F)cc2)[C@@H](CO)N1C(=O)c1cccnc1
The AC50 of the first is 1.7-fold lower: 3.9 µM for the first, 6.76 µM for the second.

`Cn1cnc(CCNC(=O)C[C@@H]2CC[C@@H]3[C@H](COC[C@@H](O)CN3C(=O)Nc3ccc(C(F)(F)F)cc3)O2)c1` and `C[C@H]1CN([C@@H](C)CO)C(=O)c2ccccc2-c2ccccc2CO[C@@H]1CN(C)Cc1ccccc1C(F)(F)F` are within 1.5-fold of each other in AC50: 9.53 µM for the first, 7.26 µM for the second.

First: CCN(CC)CCCNc1nc2ccccc2c2[nH]c3ccc(OC)cc3c12
Second: COc1c(-c2coc3cc4c(cc3c2=O)CC(O)C(C)(C)O4)ccc2c1C=CC(C)(C)O2 (stereo not drawn)
The AC50 of the first is 5.2-fold lower: 2.11 µM for the first, 11 µM for the second.

First: C[C@H]1CN([C@@H](C)CO)C(=O)c2cccc(NC(=O)Nc3ccc(F)cc3)c2O[C@H]1CN(C)S(=O)(=O)c1ccc(Cl)cc1
Second: O=C1CC(=O)OC(c2ccc([N+](=O)[O-])cc2)O1
The AC50 of the first is 4.7-fold higher: 5.13 µM for the first, 1.09 µM for the second.

Compared with `CC1=CC2OC3CC4OC(=O)C=CC=CC(C(C)O)OCC(O)C5(C)OC5C(=O)OCC2(CC1O)C4(C)C31CO1` (stereo not drawn), `CC(C)CCCCCCCCCCCCC(=O)NCC(=O)NC1C(O)C(O)C(Nc2ncnc3nc[nH]c23)OC1C(O)CO` (stereo not drawn) is 6.5-fold lower in AC50: 0.0273 µM for the first, 0.00421 µM for the second.

In the case of `NCCOc1ccc(C23CC4CC(CC(C4)C2)C3)cc1`, the AC50 is reported as 4.61 µM.

With `Clc1ccc(CSC(Cn2ccnc2)c2ccc(Cl)cc2Cl)cc1` (stereo not drawn) the AC50 was > 20 µM (inactive).
`C[C@@H]1CN([C@@H](C)CO)S(=O)(=O)c2ccc(C#Cc3ccccc3F)cc2O[C@H]1CN(C)C(=O)Cc1cccnc1` was tested, and the AC50 was > 20 µM (inactive).
With `CO[C@@H](CN(C)S(=O)(=O)c1ccc(Cl)cc1)[C@H](C)CN(Cc1ccccc1Cl)[C@@H](C)CO` the AC50 was > 20 µM (inactive).
With `COc1ccc2c3c(n(C)c2c1)[C@H](CO)N(C(=O)Nc1ccc(F)cc1)CC31CCN(C(=O)c2ccc3c(c2)OCO3)CC1` the AC50 was > 20 µM (inactive).
In the case of `COc1cccc(S(=O)(=O)N(C)C[C@@H]2OCc3ccccc3-c3c(n(C)c4ccccc34)C(=O)N([C@@H](C)CO)C[C@@H]2C)c1`, the AC50 is reported as > 20 µM (inactive).
`c1ccc2c(c1)OCC(C1=NCCN1)O2` (stereo not drawn) was tested, and the AC50 was > 20 µM (inactive).
